The target of one test is MYLK2 (human) (UniProt Q9H1R3). As to the kind of experiment: radiometric filter-binding kinase assay, Kinase HotSpot. Particulars: compound 0.5 µM; ATP 10 µM.
Sequence of TAOK2 (human) (Q9UL54 whole entry, looked up): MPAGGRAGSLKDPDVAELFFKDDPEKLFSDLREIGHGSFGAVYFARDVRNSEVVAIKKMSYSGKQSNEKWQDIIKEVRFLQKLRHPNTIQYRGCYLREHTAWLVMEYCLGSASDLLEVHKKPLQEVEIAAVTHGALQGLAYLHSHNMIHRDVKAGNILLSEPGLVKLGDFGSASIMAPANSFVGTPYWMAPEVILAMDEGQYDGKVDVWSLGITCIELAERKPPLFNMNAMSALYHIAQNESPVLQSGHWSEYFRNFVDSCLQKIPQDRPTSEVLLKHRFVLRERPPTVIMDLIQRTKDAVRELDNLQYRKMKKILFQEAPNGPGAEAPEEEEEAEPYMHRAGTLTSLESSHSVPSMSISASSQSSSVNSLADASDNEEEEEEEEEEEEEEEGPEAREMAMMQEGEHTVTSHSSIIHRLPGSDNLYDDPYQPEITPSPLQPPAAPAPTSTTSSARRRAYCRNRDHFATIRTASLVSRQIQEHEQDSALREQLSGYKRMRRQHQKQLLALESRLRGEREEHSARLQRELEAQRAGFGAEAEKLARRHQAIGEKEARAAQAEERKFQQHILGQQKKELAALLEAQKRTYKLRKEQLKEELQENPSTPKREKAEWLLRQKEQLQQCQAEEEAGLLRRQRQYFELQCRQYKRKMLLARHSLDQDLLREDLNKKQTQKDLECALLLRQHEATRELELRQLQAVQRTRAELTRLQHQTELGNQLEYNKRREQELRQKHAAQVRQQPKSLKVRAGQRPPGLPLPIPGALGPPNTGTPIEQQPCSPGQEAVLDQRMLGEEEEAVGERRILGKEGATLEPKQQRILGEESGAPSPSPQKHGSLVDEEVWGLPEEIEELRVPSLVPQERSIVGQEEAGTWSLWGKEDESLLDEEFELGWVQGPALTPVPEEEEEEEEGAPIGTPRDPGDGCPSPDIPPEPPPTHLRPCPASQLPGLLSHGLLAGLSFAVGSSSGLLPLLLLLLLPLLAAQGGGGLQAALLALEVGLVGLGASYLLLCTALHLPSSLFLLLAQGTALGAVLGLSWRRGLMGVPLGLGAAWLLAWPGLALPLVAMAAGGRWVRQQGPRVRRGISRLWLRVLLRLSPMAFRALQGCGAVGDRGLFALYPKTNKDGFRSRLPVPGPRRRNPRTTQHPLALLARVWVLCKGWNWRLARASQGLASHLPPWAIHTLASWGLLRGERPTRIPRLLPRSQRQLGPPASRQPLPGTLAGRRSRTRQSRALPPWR
Sequence of EPHA3 (human) (P29320 whole entry, looked up): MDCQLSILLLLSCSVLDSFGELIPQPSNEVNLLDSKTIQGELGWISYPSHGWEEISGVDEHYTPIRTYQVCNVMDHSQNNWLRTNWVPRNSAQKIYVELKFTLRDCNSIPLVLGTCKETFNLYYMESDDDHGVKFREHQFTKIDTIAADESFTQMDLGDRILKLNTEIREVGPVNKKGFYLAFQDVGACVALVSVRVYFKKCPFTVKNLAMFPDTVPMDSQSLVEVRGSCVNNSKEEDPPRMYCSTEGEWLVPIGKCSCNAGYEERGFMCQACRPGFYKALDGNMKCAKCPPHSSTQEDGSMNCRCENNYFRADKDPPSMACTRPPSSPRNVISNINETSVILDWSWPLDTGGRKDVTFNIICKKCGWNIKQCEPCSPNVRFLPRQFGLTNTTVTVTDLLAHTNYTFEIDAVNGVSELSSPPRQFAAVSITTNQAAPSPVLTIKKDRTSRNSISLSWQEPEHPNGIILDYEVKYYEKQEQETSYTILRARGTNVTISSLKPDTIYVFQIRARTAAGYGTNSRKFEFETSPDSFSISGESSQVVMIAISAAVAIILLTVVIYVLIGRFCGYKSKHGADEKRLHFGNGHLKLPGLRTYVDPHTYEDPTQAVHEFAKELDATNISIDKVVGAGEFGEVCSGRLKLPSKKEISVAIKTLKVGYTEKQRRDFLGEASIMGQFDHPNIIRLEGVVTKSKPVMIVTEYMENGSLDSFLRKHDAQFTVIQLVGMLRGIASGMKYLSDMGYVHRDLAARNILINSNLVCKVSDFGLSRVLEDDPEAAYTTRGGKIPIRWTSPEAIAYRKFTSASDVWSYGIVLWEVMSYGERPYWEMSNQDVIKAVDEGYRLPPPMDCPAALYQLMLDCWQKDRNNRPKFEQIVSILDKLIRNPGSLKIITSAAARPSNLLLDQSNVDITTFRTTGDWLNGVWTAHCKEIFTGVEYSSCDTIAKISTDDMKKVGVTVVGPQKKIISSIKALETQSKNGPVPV
For `O=C1NC(=O)C(c2cn(CCCO)c3ncccc23)=C1c1cnccn1`, the residual activity was found to be 81.1%.

For `COc1cc2ncnc(N3CCN(C(=O)Nc4ccc(Oc5ccccc5)cc4)CC3)c2cc1OC`, the residual activity was 94.6%.

On to `Oc1ccc(Nc2nc(-c3ccc(Cl)cc3)cs2)cc1`, for which the residual activity is 97.1%.

Another test addresses MAPKAPK5 (human) (UniProt Q8IW41). The description is as above. The following applies: compound 0.5 µM; ATP 10 µM.
In the case of `O=C1NC(=O)C(c2cn(CCCO)c3ncccc23)=C1c1cnccn1`, the residual activity turned out to be 98.6%.

As for `COc1cc2ncnc(N3CCN(C(=O)Nc4ccc(Oc5ccccc5)cc4)CC3)c2cc1OC`, the residual activity worked out at 118%.

In the case of `Oc1ccc(Nc2nc(-c3ccc(Cl)cc3)cs2)cc1`, the residual activity turned out to be 96.8%.

The next test concerns the target EPHA3 (human) (UniProt P29320). Described as above. The following applies: compound 0.5 µM; ATP 10 µM.
For the molecule `O=C1NC(=O)C(c2cn(CCCO)c3ncccc23)=C1c1cnccn1`, the residual activity turned out to be 102%.

`COc1cc2ncnc(N3CCN(C(=O)Nc4ccc(Oc5ccccc5)cc4)CC3)c2cc1OC`: the residual activity was found to be 93.7%.

For `Oc1ccc(Nc2nc(-c3ccc(Cl)cc3)cs2)cc1`, the residual activity was found to be 110%.

Another test deals with PRKACA (human) (UniProt P17612). Described as above. The following applies: compound 0.5 µM; ATP 10 µM.
With `O=C1NC(=O)C(c2cn(CCCO)c3ncccc23)=C1c1cnccn1`, the residual activity amounted to 87.7%.

As for `COc1cc2ncnc(N3CCN(C(=O)Nc4ccc(Oc5ccccc5)cc4)CC3)c2cc1OC`, the residual activity turned out to be 96%.

For the molecule `Oc1ccc(Nc2nc(-c3ccc(Cl)cc3)cs2)cc1`, the residual activity came to 105%.

A further test deals with GRK4 (human) (UniProt P32298). Described as above. Particulars: compound 0.5 µM; ATP 10 µM.
Consider `O=C1NC(=O)C(c2cn(CCCO)c3ncccc23)=C1c1cnccn1`, for which the residual activity is 90.1%.

Turning to `COc1cc2ncnc(N3CCN(C(=O)Nc4ccc(Oc5ccccc5)cc4)CC3)c2cc1OC`, the residual activity was 94.7%.

Regarding `Oc1ccc(Nc2nc(-c3ccc(Cl)cc3)cs2)cc1`, the residual activity was 90.5%.

The target of the next test is EGFR (human) (UniProt P00533). The test is described as above. Particulars: compound 0.5 µM; ATP 10 µM.
On to `O=C1NC(=O)C(c2cn(CCCO)c3ncccc23)=C1c1cnccn1`, for which the residual activity was 95.9%.

Take `COc1cc2ncnc(N3CCN(C(=O)Nc4ccc(Oc5ccccc5)cc4)CC3)c2cc1OC`: the residual activity amounted to 79.1%.

Regarding `Oc1ccc(Nc2nc(-c3ccc(Cl)cc3)cs2)cc1`, the residual activity was found to be 95.3%.

The next test addresses CAMK1G (human) (UniProt Q96NX5). Described as above. Particulars: compound 0.5 µM; ATP 10 µM.
As to `O=C1NC(=O)C(c2cn(CCCO)c3ncccc23)=C1c1cnccn1`, the residual activity is 101%.

For `COc1cc2ncnc(N3CCN(C(=O)Nc4ccc(Oc5ccccc5)cc4)CC3)c2cc1OC`, the residual activity came out at 100%.

`Oc1ccc(Nc2nc(-c3ccc(Cl)cc3)cs2)cc1`: the residual activity turned out to be 106%.

In another test the target is CAMKK2 (human) (UniProt Q96RR4). Described as above. Particulars: compound 0.5 µM; ATP 10 µM.
As for `O=C1NC(=O)C(c2cn(CCCO)c3ncccc23)=C1c1cnccn1`, the residual activity came to 115%.

For `COc1cc2ncnc(N3CCN(C(=O)Nc4ccc(Oc5ccccc5)cc4)CC3)c2cc1OC`, the residual activity stood at 81.6%.

Consider `Oc1ccc(Nc2nc(-c3ccc(Cl)cc3)cs2)cc1`, for which the residual activity worked out at 101%.

Another test has as its target TAOK2 (human) (UniProt Q9UL54). The description is as above. The following applies: compound 0.5 µM; ATP 10 µM.
As to `O=C1NC(=O)C(c2cn(CCCO)c3ncccc23)=C1c1cnccn1`, the residual activity came to 88.1%.

`COc1cc2ncnc(N3CCN(C(=O)Nc4ccc(Oc5ccccc5)cc4)CC3)c2cc1OC`: the residual activity was determined as 96.3%.

In the case of `Oc1ccc(Nc2nc(-c3ccc(Cl)cc3)cs2)cc1`, the residual activity was 101%.

For a further test, the target named is AURKA (human) (UniProt O14965). The description is as above. The following applies: compound 0.5 µM; ATP 10 µM.
Sequence of AURKA (human) (O14965 whole entry, looked up): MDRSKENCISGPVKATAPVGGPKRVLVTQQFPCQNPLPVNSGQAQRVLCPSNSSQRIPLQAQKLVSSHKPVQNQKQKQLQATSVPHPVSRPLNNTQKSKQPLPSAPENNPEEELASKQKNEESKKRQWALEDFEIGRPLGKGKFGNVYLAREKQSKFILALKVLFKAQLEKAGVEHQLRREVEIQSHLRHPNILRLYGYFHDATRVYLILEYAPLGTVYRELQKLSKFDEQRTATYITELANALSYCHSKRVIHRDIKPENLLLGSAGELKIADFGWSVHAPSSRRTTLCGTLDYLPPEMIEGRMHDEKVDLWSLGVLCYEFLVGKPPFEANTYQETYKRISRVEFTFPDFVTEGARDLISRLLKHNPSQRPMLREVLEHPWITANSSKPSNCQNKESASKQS
On to `O=C1NC(=O)C(c2cn(CCCO)c3ncccc23)=C1c1cnccn1`, for which the residual activity turned out to be 107%.

In the case of `COc1cc2ncnc(N3CCN(C(=O)Nc4ccc(Oc5ccccc5)cc4)CC3)c2cc1OC`, the residual activity is 79.6%.

`Oc1ccc(Nc2nc(-c3ccc(Cl)cc3)cs2)cc1`: the residual activity was determined as 89.4%.

For a further test, the target named is GSK3B (human) (UniProt P49841). The test is described as above. Particulars: compound 0.5 µM; ATP 10 µM.
Sequence of GSK3B (human) (P49841 whole entry, looked up): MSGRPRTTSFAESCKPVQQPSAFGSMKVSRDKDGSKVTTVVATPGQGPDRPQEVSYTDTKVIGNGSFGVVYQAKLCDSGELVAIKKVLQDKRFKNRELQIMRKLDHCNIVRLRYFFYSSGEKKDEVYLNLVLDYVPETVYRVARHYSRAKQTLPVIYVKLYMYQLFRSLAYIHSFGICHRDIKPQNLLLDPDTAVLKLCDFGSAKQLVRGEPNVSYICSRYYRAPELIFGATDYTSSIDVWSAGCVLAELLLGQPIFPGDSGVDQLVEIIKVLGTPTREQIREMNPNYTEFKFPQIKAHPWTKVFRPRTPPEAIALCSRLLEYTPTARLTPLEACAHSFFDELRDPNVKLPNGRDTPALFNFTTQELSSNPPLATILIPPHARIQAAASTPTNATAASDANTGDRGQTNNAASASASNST
Regarding `O=C1NC(=O)C(c2cn(CCCO)c3ncccc23)=C1c1cnccn1`, the residual activity was 25.2%.

Take `COc1cc2ncnc(N3CCN(C(=O)Nc4ccc(Oc5ccccc5)cc4)CC3)c2cc1OC`: the residual activity amounted to 99%.

As to `Oc1ccc(Nc2nc(-c3ccc(Cl)cc3)cs2)cc1`, the residual activity was 110%.

The target in another test is PLK1 (human) (UniProt P53350). The test is described as above. The following applies: compound 0.5 µM; ATP 10 µM.
Consider `O=C1NC(=O)C(c2cn(CCCO)c3ncccc23)=C1c1cnccn1`, for which the residual activity came to 103%.

For the molecule `COc1cc2ncnc(N3CCN(C(=O)Nc4ccc(Oc5ccccc5)cc4)CC3)c2cc1OC`, the residual activity came to 96.6%.

With `Oc1ccc(Nc2nc(-c3ccc(Cl)cc3)cs2)cc1`, the residual activity came to 106%.

The target in another test is MUSK (human) (UniProt O15146). The test is described as above. The following applies: compound 0.5 µM; ATP 10 µM.
Regarding `O=C1NC(=O)C(c2cn(CCCO)c3ncccc23)=C1c1cnccn1`, the residual activity worked out at 67.1%.

`COc1cc2ncnc(N3CCN(C(=O)Nc4ccc(Oc5ccccc5)cc4)CC3)c2cc1OC`: the residual activity is 87.4%.

`Oc1ccc(Nc2nc(-c3ccc(Cl)cc3)cs2)cc1`: the residual activity was determined as 99.5%.

The target in the next test is YES1 (human) (UniProt P07947). The description is as above. Particulars: compound 0.5 µM; ATP 10 µM.
Sequence of YES1 (human) (P07947 whole entry, looked up): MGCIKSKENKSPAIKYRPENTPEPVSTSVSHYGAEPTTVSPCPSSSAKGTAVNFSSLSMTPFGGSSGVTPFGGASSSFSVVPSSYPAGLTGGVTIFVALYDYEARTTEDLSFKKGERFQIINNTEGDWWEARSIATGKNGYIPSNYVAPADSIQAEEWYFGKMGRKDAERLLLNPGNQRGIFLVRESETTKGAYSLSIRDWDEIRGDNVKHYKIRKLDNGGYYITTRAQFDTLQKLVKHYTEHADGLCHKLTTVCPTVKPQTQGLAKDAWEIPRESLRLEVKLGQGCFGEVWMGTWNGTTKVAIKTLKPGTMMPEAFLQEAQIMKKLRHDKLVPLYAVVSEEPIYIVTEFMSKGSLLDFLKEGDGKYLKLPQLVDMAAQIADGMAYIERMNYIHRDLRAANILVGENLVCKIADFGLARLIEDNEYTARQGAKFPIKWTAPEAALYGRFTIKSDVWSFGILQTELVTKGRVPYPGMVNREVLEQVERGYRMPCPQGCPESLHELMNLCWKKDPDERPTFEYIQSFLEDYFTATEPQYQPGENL
For the molecule `O=C1NC(=O)C(c2cn(CCCO)c3ncccc23)=C1c1cnccn1`, the residual activity came out at 80.1%.

Consider `COc1cc2ncnc(N3CCN(C(=O)Nc4ccc(Oc5ccccc5)cc4)CC3)c2cc1OC`, for which the residual activity stood at 106%.

In the case of `Oc1ccc(Nc2nc(-c3ccc(Cl)cc3)cs2)cc1`, the residual activity came to 99.2%.

For a further test, the target named is MARK1 (human) (UniProt Q9P0L2). Described as above. Particulars: compound 0.5 µM; ATP 10 µM.
Sequence of MARK1 (human) (Q9P0L2 whole entry, looked up): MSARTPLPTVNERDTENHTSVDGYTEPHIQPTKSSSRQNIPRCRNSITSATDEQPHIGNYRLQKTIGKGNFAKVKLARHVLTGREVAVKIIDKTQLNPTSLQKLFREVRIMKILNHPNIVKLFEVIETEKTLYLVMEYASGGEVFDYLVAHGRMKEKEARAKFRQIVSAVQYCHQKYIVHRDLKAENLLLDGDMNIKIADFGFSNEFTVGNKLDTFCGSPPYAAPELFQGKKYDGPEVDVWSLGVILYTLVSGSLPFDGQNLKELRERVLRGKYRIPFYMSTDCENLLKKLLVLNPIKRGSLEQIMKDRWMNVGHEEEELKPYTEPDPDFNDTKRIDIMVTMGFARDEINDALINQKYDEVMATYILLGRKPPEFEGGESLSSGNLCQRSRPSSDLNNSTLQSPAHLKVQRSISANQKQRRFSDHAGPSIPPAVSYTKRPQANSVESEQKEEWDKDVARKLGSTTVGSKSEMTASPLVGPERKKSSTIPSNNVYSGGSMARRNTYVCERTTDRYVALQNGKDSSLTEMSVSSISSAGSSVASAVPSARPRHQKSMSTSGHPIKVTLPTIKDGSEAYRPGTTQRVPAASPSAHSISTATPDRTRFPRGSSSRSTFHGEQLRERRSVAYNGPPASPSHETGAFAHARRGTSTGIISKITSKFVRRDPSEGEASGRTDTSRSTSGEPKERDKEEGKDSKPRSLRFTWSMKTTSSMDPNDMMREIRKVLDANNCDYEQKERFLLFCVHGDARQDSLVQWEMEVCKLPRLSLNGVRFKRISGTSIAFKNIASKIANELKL
With `O=C1NC(=O)C(c2cn(CCCO)c3ncccc23)=C1c1cnccn1`, the residual activity came to 95%.

In the case of `COc1cc2ncnc(N3CCN(C(=O)Nc4ccc(Oc5ccccc5)cc4)CC3)c2cc1OC`, the residual activity came to 99.1%.

Regarding `Oc1ccc(Nc2nc(-c3ccc(Cl)cc3)cs2)cc1`, the residual activity turned out to be 93.7%.

The target in a further test is GSK3A (human) (UniProt P49840). The test is described as above. Particulars: compound 0.5 µM; ATP 10 µM.
On to `O=C1NC(=O)C(c2cn(CCCO)c3ncccc23)=C1c1cnccn1`, for which the residual activity turned out to be 8.56%.

On to `COc1cc2ncnc(N3CCN(C(=O)Nc4ccc(Oc5ccccc5)cc4)CC3)c2cc1OC`, for which the residual activity is 95.8%.

As for `Oc1ccc(Nc2nc(-c3ccc(Cl)cc3)cs2)cc1`, the residual activity came to 97.4%.

The target in another test is MLTK (human) (UniProt Q9NYL2). Described as above. Particulars: compound 0.5 µM; ATP 10 µM.
As for `O=C1NC(=O)C(c2cn(CCCO)c3ncccc23)=C1c1cnccn1`, the residual activity was found to be 96.4%.

For `COc1cc2ncnc(N3CCN(C(=O)Nc4ccc(Oc5ccccc5)cc4)CC3)c2cc1OC`, the residual activity turned out to be 96.2%.

Regarding `Oc1ccc(Nc2nc(-c3ccc(Cl)cc3)cs2)cc1`, the residual activity came out at 92.7%.

For another test, the target named is MAP3K8 (human) (UniProt P41279). Described as above. Particulars: compound 0.5 µM; ATP 10 µM.
Regarding `O=C1NC(=O)C(c2cn(CCCO)c3ncccc23)=C1c1cnccn1`, the residual activity is 97%.

With `COc1cc2ncnc(N3CCN(C(=O)Nc4ccc(Oc5ccccc5)cc4)CC3)c2cc1OC`, the residual activity stood at 95.1%.

Turning to `Oc1ccc(Nc2nc(-c3ccc(Cl)cc3)cs2)cc1`, the residual activity turned out to be 94.9%.

In the next test the target is MAPK10 (human) (UniProt P53779). The test is described as above. Particulars: compound 0.5 µM; ATP 10 µM.
Consider `O=C1NC(=O)C(c2cn(CCCO)c3ncccc23)=C1c1cnccn1`, for which the residual activity is 88%.

As for `COc1cc2ncnc(N3CCN(C(=O)Nc4ccc(Oc5ccccc5)cc4)CC3)c2cc1OC`, the residual activity amounted to 98.2%.

Regarding `Oc1ccc(Nc2nc(-c3ccc(Cl)cc3)cs2)cc1`, the residual activity was 101%.

The target in the next test is SRPK1 (human) (UniProt Q96SB4). The description is as above. Particulars: compound 0.5 µM; ATP 10 µM.
Sequence of SRPK1 (human) (Q96SB4 whole entry, looked up): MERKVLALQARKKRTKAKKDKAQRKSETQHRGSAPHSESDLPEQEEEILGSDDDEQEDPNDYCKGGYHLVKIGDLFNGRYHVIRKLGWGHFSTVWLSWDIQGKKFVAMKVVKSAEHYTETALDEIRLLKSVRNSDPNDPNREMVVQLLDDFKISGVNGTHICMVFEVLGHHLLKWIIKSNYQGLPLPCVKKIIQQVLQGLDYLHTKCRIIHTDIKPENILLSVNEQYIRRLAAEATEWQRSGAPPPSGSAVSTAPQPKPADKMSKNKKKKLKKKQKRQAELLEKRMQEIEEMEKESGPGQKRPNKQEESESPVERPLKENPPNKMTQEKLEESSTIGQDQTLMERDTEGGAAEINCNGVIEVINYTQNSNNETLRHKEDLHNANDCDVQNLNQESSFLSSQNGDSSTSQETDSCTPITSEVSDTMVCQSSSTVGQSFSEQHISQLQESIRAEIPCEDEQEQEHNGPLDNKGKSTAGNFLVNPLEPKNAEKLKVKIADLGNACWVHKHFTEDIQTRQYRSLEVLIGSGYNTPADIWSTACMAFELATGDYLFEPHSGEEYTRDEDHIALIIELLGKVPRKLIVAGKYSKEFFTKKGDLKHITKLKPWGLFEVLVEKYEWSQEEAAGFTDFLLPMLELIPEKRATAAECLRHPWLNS
Regarding `O=C1NC(=O)C(c2cn(CCCO)c3ncccc23)=C1c1cnccn1`, the residual activity came to 98%.

With `COc1cc2ncnc(N3CCN(C(=O)Nc4ccc(Oc5ccccc5)cc4)CC3)c2cc1OC`, the residual activity was 97.5%.

Turning to `Oc1ccc(Nc2nc(-c3ccc(Cl)cc3)cs2)cc1`, the residual activity was 103%.

The next test deals with CSNK1A1 (human) (UniProt P48729). The test is described as above. Particulars: compound 0.5 µM; ATP 10 µM.
For the molecule `O=C1NC(=O)C(c2cn(CCCO)c3ncccc23)=C1c1cnccn1`, the residual activity was determined as 67%.

Consider `COc1cc2ncnc(N3CCN(C(=O)Nc4ccc(Oc5ccccc5)cc4)CC3)c2cc1OC`, for which the residual activity was 108%.

Take `Oc1ccc(Nc2nc(-c3ccc(Cl)cc3)cs2)cc1`: the residual activity stood at 96.4%.

By residual activity is commonly meant the signal under treatment as a percentage of the control signal.

Values taken from the kinase profiling compilation of Christmann-Franck et al. (2016).
